# Measured values as given in US20080021069A1, “Receptor Function Regulating Agent” (TAKEDA PHARMACEUTICAL COMPANY LIMITED, priority 2004, published 2008).
row,Structure (SMILES),melting point
1,"CCOc1ccc(-n2c(SCc3ccc(Cl)cc3)nc3cccc(Cl)c32)cc1 [Example 138, 7-Chloro-2-[(4-chlorobenzyl)thio]-1-(4-ethoxyphenyl)-1H-benzimidazole]",130 to 131 °C
2,"FC(F)(F)COc1ccc(-n2c(NCc3ccc(Cl)cc3)nc3cc(Cl)ccc32)cc1 [Example 91, 5-Chloro-N-(4-chlorobenzyl)-1-[4-(2,2,2-trifluoroethoxy)phenyl]-1H-benzimidazol-2-amine]",138 to 139 °C
3,"Clc1ccc(CSc2nc3ccc(Cl)cc3n2-c2ccc(OCc3ccccc3)cc2)cc1 [Example 119, 1-[4-(Benzyloxy)phenyl]-6-chloro-2-[(4-chlorobenzyl)thio]-1H-benzimidazole]",193 to 194 °C
4,"CCOc1ccc(-n2c(NCc3ccc(C(C)(C)C)cc3)nc3ccc(Cl)cc32)cc1.Cl [Example 70, N-(4-tert-Butylbenzyl)-6-chloro-1-(4-ethoxyphenyl)-1H-benzimidazol-2-amine hydrochloride]",188 to 189 °C
5,"COCOc1ccc(-n2c(SCc3ccccn3)nc3ccc(Cl)cc32)cc1 [Example 55, 6-Chloro-1-[4-(methoxymethoxy)phenyl]-2-[(pyridin-2-ylmethyl)thio]-1H-benzimidazole]",95 to 96 °C
6,"COc1ccc(-n2c(SCc3ccccc3Cl)nc3ccc(Cl)cc32)cc1 [Example 3, 6-Chloro-2-[(2-chlorobenzyl)thio]-1-(4-methoxyphenyl)-1H-benzimidazole]",94 to 95 °C
7,"COc1ccc(-n2c(SCc3ccc(Cl)cc3)nc3ccc(OC)cc32)cc1 [Example 20, 2-[(4-Chlorobenzyl)thio]-6-methoxy-1-(4-methoxyphenyl)-1H-benzimidazole]",80 to 81 °C
8,"CN(C)C(=O)c1ccc(-n2c(SCc3ccc(Cl)cc3)nc3ccc(Cl)cc32)cc1 [Example 27, 4-{6-Chloro-2-[(4-chlorobenzyl)thio]-1H-benzimidazol-1-yl}-N,N-dimethylbenzamide]",139 to 140 °C
9,"COc1ccc(-n2c(SCc3ccc(Cl)cc3)nc3ccc(Cl)cc32)cc1 [Example 1, 6-Chloro-2-[(4-chlorobenzyl)thio]-1-(4-methoxyphenyl)-1H-benzimidazole]",116 to 117 °C
10,"Clc1ccc(CSc2nc3cc(Cl)ccc3n2-c2ccc(OCc3ccccc3)cc2)cc1 [Example 133, 1-[4-(Benzyloxy)phenyl]-5-chloro-2-[(4-chlorobenzyl)thio]-1H-benzimidazole]",137 to 138 °C
11,"CCOCOc1ccc(-n2c(SCc3ccc(Cl)cc3)nc3ccc(Cl)cc32)cc1 [Example 31, 6-Chloro-2-[(4-chlorobenzyl)thio]-1-[4-(ethoxymethoxy)phenyl]-1H-benzimidazole]",130 to 131 °C
12,"CCOC(=O)c1ccc(-n2c(SCc3ccc(Cl)cc3)nc3ccc(Cl)cc32)cc1 [Example 19, Ethyl 4-{6-chloro-2-[(4-chlorobenzyl)thio]-1H-benzimidazol-1-yl}benzoate]",100 to 101 °C
13,Cl.FC(F)(F)Oc1ccc(-n2c(SCc3ccc(Cl)cc3)nc3cc(Cl)ccc32)cc1,96 to 100 °C
14,"OCCOc1ccc(-n2c(SCc3ccc(Cl)cc3)nc3ccc(Cl)cc32)cc1 [Example 16, 2-(4-{6-Chloro-2-[(4-chlorobenzyl)thio]-1H-benzimidazol-1-yl}phenoxy)ethanol]",113 to 114 °C
15,"CC(=O)OCCOc1ccc(-n2c(SCc3ccc(Cl)cc3)nc3ccc(Cl)cc32)cc1 [Example 15, 2-(4-{6-Chloro-2-[(4-chlorobenzyl)thio]-1H-benzimidazol-1-yl}phenoxy)ethyl acetate]",126 to 127 °C
16,"CCOC(=O)c1ccc2c(c1)nc(SCc1ccc(Cl)cc1)n2-c1ccc(OCC)cc1 [Example 107, Ethyl 2-[(4-chlorobenzyl)thio]-1-(4-ethoxyphenyl)-1H-benzimidazole-5-carboxylate]",133 to 134 °C
17,"CCCCOc1ccc(-n2c(NCc3ccc(Cl)cc3)nc3cc(Cl)ccc32)cc1 [Example 87, 1-(4-Butoxyphenyl)-5-chloro-N-(4-chlorobenzyl)-1H-benzimidazol-2-amine]",100 to 101 °C
18,"CC(C)Oc1ccc(-n2c(SCc3ccc(Cl)cc3)nc3ccc(Cl)cc32)cc1 [Example 23, 6-Chloro-2-[(4-chlorobenzyl)thio]-1-(4-isopropoxyphenyl)-1H-benzimidazole]",102 to 103 °C
19,"COc1ccccc1-n1c(SCc2ccc(Cl)cc2)nc2ccc(Cl)cc21 [Example 18, 6-Chloro-2-[(4-chlorobenzyl)thio]-1-(2-methoxyphenyl)-1H-benzimidazole]",124 to 125 °C
20,"FC(F)(F)Oc1ccc(-n2c(SCc3ccc(Cl)cc3)nc3cc(Cl)c(Cl)cc32)cc1 [Example 142, 5,6-Dichloro-2-[(4-chlorobenzyl)thio]-1-[4-(trifluoromethoxy)phenyl]-1H-benzimidazole]",111 to 112 °C
21,"CS(=O)(=O)Oc1ccc(-n2c(SCc3ccc(Cl)cc3)nc3ccc(Cl)cc32)cc1 [Example 25, 4-{6-Chloro-2-[(4-chlorobenzyl)thio]-1H-benzimidazol-1-yl}phenyl methanesulfonate]",128 to 129 °C
22,"FC(F)(F)Oc1ccc(-n2c(SCc3ccc(Cl)cc3)nc3ccc(Cl)cc32)cc1 [Example 141, 6-Chloro-2-[(4-chlorobenzyl)thio]-1-[4-(trifluoromethoxy)phenyl]-1H-benzimidazole]",88 to 89 °C

row,Structure (SMILES),melting point
1,Cl.FC(F)(F)COc1ccc(-n2c(SCc3ccc(Cl)cc3)nc3ccc(Cl)cc32)cc1,106 to 107 °C
2,"O=C(NCCO)c1ccc(-n2c(SCc3ccc(Cl)cc3)nc3ccc(Cl)cc32)cc1 [Example 43, 4-{6-Chloro-2-[(4-chlorobenzyl)thio]-1H-benzimidazol-1-yl}-N-(2-hydroxyethyl)benzamide]",185 to 186 °C
3,COc1ccc(-n2c(SCc3ccc(Cl)cc3)nc3ccc(Cl)cc32)cn1.Cl,80 to 86 °C
4,"CCOc1ccc(-n2c(SC(C)c3ccc(Br)cc3)nc3ccc(Cl)cc32)cc1 (stereo not shown) [Example 48, 2-{[1-(4-Bromophenyl)ethyl]thio}-6-chloro-1-(4-ethoxyphenyl)-1H-benzimidazole]",95 to 98 °C
5,"FC(F)(F)COc1ccc(-n2c(NCc3ccc(Cl)cc3)nc3ccc(Cl)cc32)cc1 [Example 79, 6-Chloro-N-(4-chlorobenzyl)-1-[4-(2,2,2-trifluoroethoxy)phenyl]-1H-benzimidazol-2-amine]",150 to 151 °C
6,"Clc1ccc(CSc2nc3ccc(Cl)cc3n2-c2ccc(OCC3CC3)cc2)cc1 [Example 11, 6-Chloro-2-[(4-chlorobenzyl)thio]-1-[4-(cyclopropylmethoxy)phenyl]-1H-benzimidazole]",137 to 138 °C
7,"CCOc1ccc(-n2c(SCc3ccc(Br)cc3)nc3cccc(Cl)c32)cc1 [Example 137, 2-[(4-Bromobenzyl)thio]-7-chloro-1-(4-ethoxyphenyl)-1H-benzimidazole]",143 to 144 °C
8,"COc1ccc(-n2c(SCc3cccc(OC)c3)nc3ccc(Cl)cc32)cc1 [Example 5, 6-Chloro-2-[(3-methoxybenzyl)thio]-1-(4-methoxyphenyl)-1H-benzimidazole]",93 to 94 °C
9,"CCOc1ccc(-n2c(SCc3ccc(C(=O)OC)cc3)nc3ccc(Cl)cc32)cc1 [Example 37, Methyl 4-({[6-chloro-1-(4-ethoxyphenyl)-1H-benzimidazol-2-yl]thio}methyl)benzoate]",107 to 109 °C
10,"CCOc1ccc(-n2c(NCc3ccc(Cl)cc3)nc3ccc(Cl)cc32)cc1.Cl [Example 68, N-(4-Chlorobenzyl)-6-chloro-1-(4-ethoxyphenyl)-1H-benzimidazol-2-amine hydrochloride]",173 to 175 °C
11,"COc1ccc(-n2c(SCc3ccccc3)nc3ccc(Cl)cc32)cc1 [Example 21, 2-(Benzylthio)-6-chloro-1-(4-methoxyphenyl)-1H-benzimidazole]",89 to 90 °C
12,"CCOc1ccc(-n2c(NCc3ccc(Br)cc3)nc3ccc(Cl)cc32)cc1.Cl [Example 69, N-(4-Bromobenzyl)-6-chloro-1-(4-ethoxyphenyl)-1H-benzimidazol-2-amine hydrochloride]",135 to 138 °C
13,"CCCCOc1ccc(-n2c(SCc3ccc(Cl)cc3)nc3ccc(Cl)cc32)cc1 [Example 22, 1-(4-Butoxyphenyl)-6-chloro-2-[(4-chlorobenzyl)thio]-1H-benzimidazole]",96 to 97 °C
14,"Clc1ccc(CSc2nc3ccc(Cl)cc3n2-c2ccccn2)cc1 [Example 130, 6-Chloro-2-[(4-chlorobenzyl)thio]-1-(pyridin-2-yl)-1H-benzimidazole]",107 to 108 °C
15,"Clc1ccc(CSc2nc3ccc(Cl)cc3n2-c2ccc(-c3cnco3)cc2)cc1 [Example 136, 6-Chloro-2-[(4-chlorobenzyl)thio]-1-[4-(1,3-oxazol-5-yl)phenyl]-1H-benzimidazole]",130 to 131 °C
16,"FC(F)(F)COc1ccc(-n2c(NCc3ccc(Br)cc3)nc3cc(Cl)ccc32)cc1 [Example 90, N-(4-Bromobenzyl)-5-chloro-1-[4-(2,2,2-trifluoroethoxy)phenyl]-1H-benzimidazol-2-amine]",146 to 147 °C
17,"CCOCOc1ccc(-n2c(SCc3ccc(Br)cc3)nc3ccc(Cl)cc32)cc1 [Example 32, 2-[(4-Bromobenzyl)thio]-6-chloro-1-[4-(ethoxymethoxy)phenyl]-1H-benzimidazole]",145 to 146 °C
18,"CCCCOc1ccc(-n2c(NCc3ccc(Br)cc3)nc3cc(Cl)ccc32)cc1 [Example 88, N-(4-Bromobenzyl)-1-(4-butoxyphenyl)-5-chloro-1H-benzimidazol-2-amine]",95 to 96 °C
19,COc1ccc(-n2c(SCc3ccc(C(F)(F)F)nc3)nc3ccc(Cl)cc32)cn1.Cl,69 to 76 °C
20,"Clc1ccc(CSc2nc3ccc(Cl)cc3n2-c2ccc(Cl)cc2)cc1 [Example 26, 6-Chloro-2-[(4-chlorobenzyl)thio]-1-(4-chlorophenyl)-1H-benzimidazole]",156 to 157 °C
21,"CCC(=O)c1ccc(-n2c(SCc3ccc(Cl)cc3)nc3ccc(Cl)cc32)cc1 [Example 40, 1-(4-{6-Chloro-2-[(4-chlorobenzyl)thio]-1H-benzimidazol-1-yl}phenyl)propan-1-one]",176 to 177 °C
